How the values were obtained:
[1] = test system: Jurkat T cell acute lymphoblastic leukemia cell line; assay: Anti-leukemia AlamarBlue assay in Jurkat cells; type: cell-based, human; conditions: for loss in anti-leukemic potency compared to dimer 838 / loss in anti-leukemic potency compared to oxygenated counterpart: Jurkat cells; for loss in anti-leukemic potency compared to dimer 838: relative to 838; for loss in anti-leukemic potency compared to oxygenated counterpart: phosphoryl oxygen replaced with sulfur
[2] = test system: CMV; conditions: cited from earlier work
[3] = test system: PHA-stimulated peripheral blood mononuclear cells (PBMCs); assay: Toxicity to nonmalignant PHA-stimulated PBMCs; type: cell-based; conditions: Homo sapiens, PBMC, 48 h, read-out: PHA-stimulated PBMC IC50
[4] = test system: prostate cancer LNCaP cells; conditions: compared with standard drug doxorubicin; ref [12]; cited from earlier work

## CO[C@H]1O[C@@H]2O[C@@]3(C)CC[C@H]4[C@H](C)CC[C@@H]([C@H]1C)[C@@]24OO3 [Artemether, artemether, reference compound]
[1]; Jurkat T-ALL cells, 48 hours of drug treatment, AlamarBlue, average of triplicate experiments
  Anti-leukemia IC50: essentially inactive
[2]; as previously determined, ref [9]
  activity against CMV: weak activity

## C[C@H]1[C@@H](CC(COP(=O)(O)Oc2ccccc2)C[C@H]2O[C@@H]3O[C@@]4(C)CC[C@H]5[C@H](C)CC[C@@H]([C@H]2C)[C@@]35OO4)O[C@@H]2O[C@@]3(C)CC[C@H]4[C@H](C)CC[C@@H]1[C@@]24OO3 (stereo partly drawn) [compound 762, monophenylphosphate ester]
[1]
  loss in anti-leukemic potency compared to dimer 838: 70 fold
[3]
  IC50: ~40 µM

## C[C@H]1[C@@H](CC(COP2(=O)Oc3ccccc3-c3ccccc3O2)C[C@H]2O[C@@H]3O[C@@]4(C)CC[C@H]5[C@H](C)CC[C@@H]([C@H]2C)[C@@]35OO4)O[C@@H]2O[C@@]3(C)CC[C@H]4[C@H](C)CC[C@@H]1[C@@]24OO3 (stereo partly drawn) [compound 836, dimer biphenylphosphate ester]
[1]
  loss in anti-leukemic potency compared to dimer 838: about half as efficacious

## C[C@H]1[C@@H](CC(COP(=O)(Oc2ccccc2)Oc2ccccc2)C[C@H]2O[C@@H]3O[C@@]4(C)CC[C@H]5[C@H](C)CC[C@@H]([C@H]2C)[C@@]35OO4)O[C@@H]2O[C@@]3(C)CC[C@H]4[C@H](C)CC[C@@H]1[C@@]24OO3 (stereo partly drawn) [compound 838, trioxane dimer diphenyl phosphate ester]
[4]
  potency at inhibiting growth of LNCaP cells: more potent than the standard drug doxorubicin
[2]; ref [10]
  selectivity index (anti-CMV/cytotoxicity): approximately 1500

## C[C@H]1[C@@H](CC(COP(=O)(OC2CCCCC2)OC2CCCCC2)C[C@H]2O[C@@H]3O[C@@]4(C)CC[C@H]5[C@H](C)CC[C@@H]([C@H]2C)[C@@]35OO4)O[C@@H]2O[C@@]3(C)CC[C@H]4[C@H](C)CC[C@@H]1[C@@]24OO3 (stereo partly drawn) [compound 851, dimer dicyclohexylphosphate ester]
[1]
  loss in anti-leukemic potency compared to dimer 838: about half as efficacious

## C[C@H]1[C@@H](CC(COP2(=S)Oc3ccccc3-c3ccccc3O2)C[C@H]2O[C@@H]3O[C@@]4(C)CC[C@H]5[C@H](C)CC[C@@H]([C@H]2C)[C@@]35OO4)O[C@@H]2O[C@@]3(C)CC[C@H]4[C@H](C)CC[C@@H]1[C@@]24OO3 (stereo partly drawn) [compound 853, dimer biphenylthiophosphate ester]
[1]
  loss in anti-leukemic potency compared to oxygenated counterpart: ~ 9 fold

## C[C@H]1[C@@H](CC(COP(=S)(Oc2ccccc2)Oc2ccccc2)C[C@H]2O[C@@H]3O[C@@]4(C)CC[C@H]5[C@H](C)CC[C@@H]([C@H]2C)[C@@]35OO4)O[C@@H]2O[C@@]3(C)CC[C@H]4[C@H](C)CC[C@@H]1[C@@]24OO3 (stereo partly drawn) [compound 855, dimer diphenylthiophosphate ester]
[1]
  loss in anti-leukemic potency compared to oxygenated counterpart: ~ 18 fold

## Cc1cccc(C)c1OP(=O)(OCC(C[C@H]1O[C@@H]2O[C@@]3(C)CC[C@H]4[C@H](C)CC[C@@H]([C@H]1C)[C@@]24OO3)C[C@H]1O[C@@H]2O[C@@]3(C)CC[C@H]4[C@H](C)CC[C@@H]([C@H]1C)[C@@]24OO3)Oc1c(C)cccc1C [compound 895, dimer bis-(2,6-dimethylphenyl)phosphate ester]
[1]
  loss in anti-leukemic potency compared to dimer 838: comparable potency

## CC(C)c1ccc(OP(=O)(OCC(C[C@H]2O[C@@H]3O[C@@]4(C)CC[C@H]5[C@H](C)CC[C@@H]([C@H]2C)[C@@]35OO4)C[C@H]2O[C@@H]3O[C@@]4(C)CC[C@H]5[C@H](C)CC[C@@H]([C@H]2C)[C@@]35OO4)Oc2ccc(C(C)C)cc2)cc1 [compound 923, dimer bis-(4-isopropylphenyl)phosphate ester]
[1]
  loss in anti-leukemic potency compared to dimer 838: 5 fold
